The results in this text go back to patent publication US9409879B2, “Total synthesis of redox-active 1.4-naphthoquinones and their metabolites and their therapeutic use as antimalarial and schistomicidal agents” (CENTRE NATIONAL DE LA RECHERCHE SCIENTIFIQUE, priority 2011, dated 2016).

The test system of one series is hematin polymerization. Description: Inhibition of the hematin polymerisation (β-hematin formation), UV-Vis absorbance at 405 nm. Type of series: biochemical. As to conditions: for Maximum inhibition (%) / IC50 drug (equiv.)/hematin (equiv.) ratio: inhibition of β-hematin formation; for IC50 drug (equiv.)/hematin (equiv.) ratio: absorbance at 405 nm. On the procedure:
The antischistosomial effect is measured by the evaluation of the ability of the compounds to inhibit hematin polymerization according to the biochemical assay previously developed by Ncokazi. K. K. Egan. T. J. Anal. Biochem. 2005, 338, 306-319 adapted to the compounds of the present invention. The assays were monitored by UV-Vis absorption spectrophotometry and IC50 values for inhibition of β-hematin formation were determined from the absorbance at 405 nm versus the drug (equiv.)/hematin (equiv.) ratio.

For the next series, the system named is P. falciparum strain Dd2. The series can be described thus: 3H-hypoxanthine incorporation antiproliferation assay, P. falciparum Dd2. The class given is cell-based, Plasmodium falciparum. Conditions: multi-resistant P. falciparum strain Dd2. On the procedure: Infected erythrocytes in ring stage (0.5% parasitemia, 2.5% hematocrit) in 96-well plates were exposed to the compounds for 48 h and then to radioactive hypoxanthine for 24 h. The amount of radioactivity in precipitable material served as an index of cell proliferation.

A further series concerns P. falciparum strain 3D7. The series can be described thus: Antimalarial assay, chloroquine-sensitive P. falciparum 3D7. Type of series: cell-based, Plasmodium falciparum. As to conditions: chloroquine-sensitive strain 3D7.
Series [1] in a line: Complex formation with hematin (apparent association constants). Type of series: binding. As to conditions: pH 7.5; 1:1 charge-transfer complexes with hematin. The text has this: Both 3-benzylnaphtoquinone derivatives form 1:2 or 2:1 complexes with hematin displaying apparent association constants at pH 7.5 of about 10^11-10^13 M^−1. Also the benzoxanthone derivative LJ144K form 1:1 charge-transfer complexes with hematin displaying apparent association constants at pH 7.5 of about 10^5-10^6 M^−1.

The melting point is the temperature of the solid-liquid transition.

Counter-ions that a name gives are not always drawn. Bounds are passed on as bounds.

Regarding `CC1=C(Cc2ccc(Br)cc2)C(=O)c2cc(C)c(C)cc2C1=O` [Compound 12.28, 2,6,7-trimethyl-3-(4-bromobenzyl)naphthalene-1,4-dione], the melting point lay in the range of 129 to 130 °C.

For `CC1=C(Cc2ccc(Br)cc2)C(=O)c2cc(F)ccc2C1=O` [Compound 12.5, 3-(4-bromobenzyl)-6-fluoro-2-methylnaphthalene-1,4-dione], the melting point lay in the range of 127 to 129 °C.

Turning to `CC1=C(Cc2ccc(Br)cc2)C(=O)c2ccc(F)cc2C1=O` [Compound 12.16, 2-(4-bromobenzyl)-6-fluoro-3-methylnaphthalene-1,4-dione], the melting point was 107 °C.

For `CC1=C(Cc2ccc(Br)cc2)C(=O)c2cccc(C)c2C1=O` [Compound 12.26, 2,8-dimethyl-3-(4-bromobenzyl)naphthalene-1,4-dione], the melting point was in the range of 116 to 118 °C.

`CC1=C(Cc2ccc(C(F)(F)F)cc2)C(=O)c2c(C)cccc2C1=O` [Compound 12.19, 2,5-dimethyl-3-(4-(trifluoromethyl)benzyl)naphthalene-1,4-dione] came in with a melting point of 87 to 88 °C.

Compound `CC1=C(Cc2ccc(C(F)(F)F)cc2)C(=O)c2cc(OS(=O)(=O)C(F)(F)F)ccc2C1=O` (as salt: methanesulfonate) [Compound 12.29, 6-methyl-5,8-dioxo-7-(4-(trifluoromethyl)benzyl)-5,8-dihydronaphthalen-2-yl trifluoromethanesulfonate] had a melting point of 127 °C.

Regarding `COc1ccc2c(c1)C(=O)C(Cc1ccc(C(F)(F)F)cc1)=C(C)C2=O` [Compound 12.2], the melting point fell in the range of 86 to 87 °C.

Turning to `COc1ccc2c(c1)C(=O)C(C)=C(Cc1ccc(Br)cc1)C2=O` [Compound 12.7, 3-(4-bromobenzyl)-7-methoxy-2-methylnaphthalene-1,4-dione], the melting point lay in the range of 149 to 151 °C.

In the case of `COc1cc(CC2=C(C)C(=O)c3cc(OC)c(OC)cc3C2=O)cc(OC)c1` [Compound 12.13, 2-(3,5-dimethoxybenzyl)-6,7-dimethoxy-3-methylnaphthalene-1,4-dione], the melting point was in the range of 168 to 169 °C.

Take `COc1cc2c(cc1OC)C(=O)C(Cc1ccc(C(F)(F)F)cc1)=C(C)C2=O` [Compound 12.11, 6,7-dimethoxy-2-methyl-3-(4-(trifluoromethyl)benzyl)naphthalene-1,4-dione]: the melting point was > 200 °C (dec.).

The compound `CC1=C(Cc2ccc(C(F)(F)F)cc2)C(=O)c2cc(C)c(C)cc2C1=O` [Compound 12.27, 2,6,7-trimethyl-3-(4-(trifluoromethyl)benzyl)naphthalene-1,4-dione] had a melting point of 143 to 144 °C.

`CC1=C(Cc2ccc(Br)cc2)C(=O)c2c(C)cccc2C1=O` [Compound 12.20, 3-(4-bromobenzyl)-2,5-dimethylnaphthalene-1,4-dione] had a melting point of 149 to 150 °C.

As for `COc1ccc2c(c1)C(=O)C(C)=C(Cc1ccc(C(F)(F)F)cc1)C2=O` [Compound 12.8], the melting point lay in the range of 137 to 139 °C.

In turn, `COc1ccc(OC)c(CC2=C(C)C(=O)c3cc(OC)c(OC)cc3C2=O)c1` [Compound 12.14, 2-14(2,5-dimethoxybenzyl)-6,7-dimethoxy-3-methylnaphthalene-1,4-dione] displayed a melting point of 166 to 167 °C.

`COc1cc(CC2=C(C)C(=O)c3cc(OC)ccc3C2=O)cc(OC)c1` [Compound 12.9, 3-(3,5-dimethoxybenzyl)-7-methoxy-2-methylnaphthalene-1,4-dione] gave a melting point of 151 to 153 °C.

For `COc1cc2c(cc1OC)C(=O)C(Cc1ccc(Br)cc1)=C(C)C2=O` [Compound 12.12, 6,7-dimethoxy-2-methyl-3-(4-bromobenzyl)naphthalene-1,4-dione], the melting point is > 200 °C (dec.).

Compound `CC1=C(Cc2ccc(Br)cc2)C(=O)c2ccc(C)cc2C1=O` [Compound 12.24, 2,7-dimethyl-3-(4-bromobenzyl)naphthalene-1,4-dione] yielded a melting point of 122 to 123 °C.

In turn, `CC1=C(Cc2ccc(C(F)(F)F)cc2)C(=O)c2ccc(C)cc2C1=O` [Compound 12.23, 2,7-dimethyl-3-(4-(trifluoromethyl)benzyl)naphthalene-1,4-dione] displayed a melting point of 102 °C.

Take `CC1=C(Cc2ccncc2)C(=O)c2ccccc2C1=O` [LJ186]: in the series with hematin polymerization, the “inhibition of the β-hematin polymerization” value is on record as “very potent inhibitors”, the “Maximum inhibition (%)” value was 80% and the “IC50 drug (equiv.)/hematin (equiv.) ratio” value is listed as 4.2 drug (equiv.)/hematin (equiv.) ratio. Moreover, the “antimalarial activity relative to chloroquine and P_TM29” value in the series with P. falciparum strain Dd2 is given as “more active than chloroquine or as active as P_TM29”.

In the case of `CC1=C(Cc2ccc(C(F)(F)F)cc2)C(=O)c2ccc(OS(=O)(=O)C(F)(F)F)cc2C1=O` (as salt: methanesulfonate) [Compound 12.30, 7-methyl-5,8-dioxo-6-(4-(trifluoromethyl)benzyl)-5,8-dihydronaphthalen-2-yl trifluoromethanesulfonate], the melting point lay in the range of 87 to 88 °C.

`COc1cc(CC2=C(C)C(=O)c3ccc(OC)cc3C2=O)cc(OC)c1` [Compound 12.4, 3-(3,5-dimethoxybenzyl)-6-methoxy-2-methylnaphthalene-1,4-dione] showed a melting point of 149 °C.

In turn, `CC1=C(Cc2ccc(F)c(C(F)(F)F)c2)C(=O)c2ccc(F)cc2C1=O` [Compound 12.18, 6-fluoro-2-(4-fluoro-3-(trifluoromethyl)benzyl)-3-methylnaphthalene-1,4-dione] gave a melting point of 106 to 107 °C.

On to `Cc1c(O)c2ccccc2c2oc3cc(C(F)(F)F)ccc3c(=O)c12` [LJ144K, 5-hydroxy-6-methyl-10-(trifluoromethyl)-7H-benzo[c]xanthen-7-one], for which, in the series with hematin polymerization, the “Maximum inhibition (%)” value amounted to 75% and the “IC50 drug (equiv.)/hematin (equiv.) ratio” value is 2.5 drug (equiv.)/hematin (equiv.) ratio. Besides, the “IC50 values, antimalarial effects” value in the series with P. falciparum strain 3D7 is recorded as “submicromolar range”. Further, in series [1], the “apparent association constants with hematin” value was 10^5-10^6 M^−1.

For the compound `CC1=C(Cc2ccc(C(F)(F)F)cc2)C(=O)c2cccc(C)c2C1=O` [Compound 12.25, 2,8-dimethyl-3-(4-(trifluoromethyl)benzyl)naphthalene-1,4-dione], the melting point was 98 to 99 °C.

Turning to `COc1ccc2c(c1)C(=O)C(Cc1ccc(Br)cc1)=C(C)C2=O` [Compound 12.1, 3-(4-bromobenzyl)-6-methoxy-2-methylnaphthalene-1,4-dione], the melting point is 135 to 137 °C.

On to `CC1=C(Cc2ccc(F)c(Cl)c2)C(=O)c2ccc(F)cc2C1=O` [Compound 12.17, 2-(3-chloro-4-fluorobenzyl)-6-fluoro-3-methylnaphthalene-1,4-dione], for which the melting point fell in the range of 117 to 118 °C.
